{
  "source": "patent US20120129897A1",
  "about": "“BIS HETEROARYL INHIBITORS OF PRO-MATRIX METALLOPROTEINASE ACTIVATION” (priority 2010, published 2012)",
  "key": {"[1]": {"target": "T1, MMP9 (Rattus norvegicus, UniProt P50282)", "T1 construct": "Pro and active MMP9 were abundantly present in ankles of SCW-induced vehicle-treated rats; from tissue; host or cells: ankle (tibia-tarsus joint) homogenate, female Lewis rats", "T1 sequence (P50282 108-708)": "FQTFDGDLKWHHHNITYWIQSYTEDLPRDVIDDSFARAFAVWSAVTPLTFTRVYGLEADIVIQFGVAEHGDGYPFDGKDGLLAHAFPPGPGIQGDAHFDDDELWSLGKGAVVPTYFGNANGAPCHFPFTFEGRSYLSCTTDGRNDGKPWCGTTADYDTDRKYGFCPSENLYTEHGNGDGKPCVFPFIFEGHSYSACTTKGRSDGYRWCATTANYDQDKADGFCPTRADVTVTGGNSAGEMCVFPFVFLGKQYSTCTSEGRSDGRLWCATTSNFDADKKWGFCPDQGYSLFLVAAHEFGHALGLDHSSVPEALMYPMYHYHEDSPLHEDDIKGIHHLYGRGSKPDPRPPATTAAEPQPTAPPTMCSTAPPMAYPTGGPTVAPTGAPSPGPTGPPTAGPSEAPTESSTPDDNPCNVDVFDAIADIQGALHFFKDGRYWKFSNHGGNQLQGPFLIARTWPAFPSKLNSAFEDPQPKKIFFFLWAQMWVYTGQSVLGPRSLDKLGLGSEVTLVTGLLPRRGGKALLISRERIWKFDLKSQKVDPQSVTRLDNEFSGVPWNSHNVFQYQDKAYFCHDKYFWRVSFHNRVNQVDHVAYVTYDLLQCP", "test": "Western blot of pro and active MMP9 in ankles of rats with SCW-induced arthritis", "format": "in vivo", "conditions": "Day 26, four hours after AM dose; for Abundance of proMMP9 in ankles: mAb-L51/82, FIG. 3A", "experimental": "Hind-limbs were skinned, severed just above the tibia-tarsus joint and below the metatarsals, and the tibia-tarsus joints (ankles) were weighed, snap frozen and pulverized on dry ice using a hammer and anvil. The pulverized tissue was suspended in 3 volumes (w:v) of ice-cold homogenization buffer containing 50 mM Tris pH 7.5, 150 mM NaCl, 5 mM EDTA, 1% Triton X100, 0.05% Brij 30, 10% dimethylsulfoxide and Complete EDTA-free Protease Inhibitor Cocktail (Roche Diagnostics). The suspended tissue was homogenized sequentially with a Kinematica AG Polytron and a Dounce homogenizer. Homogenates were centrifuged at 16,000×g for 10 min at 4° C. and the soluble fractions were saved. Dimethylsulfoxide was removed from a portion of each soluble fraction using PD MiniTrap™ G-25 desalting columns (GE Healthcare). Homogenates (0.25 mL), free of DMSO, were diluted with an equal volume of binding buffer (i.e., homogenization buffer without dimethylsufoxide) and adjusted to contain 50 μL of a 50% slurry of gelatin-conjugated sepharose. Following 2 hours of rotation at 4° C. the beads were washed twice in binding buffer and eluted in 100 μL 2×-reducing Laemmli buffer with heating to 95° C. for 5 minutes. Eluates (20 μL) were resolved on 4-12% NuPAGE gels, transferred to 0.45 μm pore-sized nitrocellose and immunoblotted for detection of proMMP9, active MMP9, and other processed forms using mAb-L51/82 and pAb-1246 as described above for detection of MMP9 forms in synoviocyte and HFL-1 cell conditioned media.\nRats in the study reported in Tables 4 and 5 were sacrificed on Day 26 four hours after the AM dose. Ankles harvested from the right-hind-limbs were processed by the method described above. Pro and active MMP9 were abundantly present in ankles of SCW-induced vehicle-treated rats (FIGS. 3A and 3B, lanes 1-3)."}, "[2]": {"target": "T2, proMMP9 (Homo sapiens, UniProt P14780)", "T2 construct": "endogenous in cells; host or cells: HFL-1 (ATCC CCL-153), TNFα and neutrophil elastase added", "T2 sequence (P14780 20-707 limits assumed)": "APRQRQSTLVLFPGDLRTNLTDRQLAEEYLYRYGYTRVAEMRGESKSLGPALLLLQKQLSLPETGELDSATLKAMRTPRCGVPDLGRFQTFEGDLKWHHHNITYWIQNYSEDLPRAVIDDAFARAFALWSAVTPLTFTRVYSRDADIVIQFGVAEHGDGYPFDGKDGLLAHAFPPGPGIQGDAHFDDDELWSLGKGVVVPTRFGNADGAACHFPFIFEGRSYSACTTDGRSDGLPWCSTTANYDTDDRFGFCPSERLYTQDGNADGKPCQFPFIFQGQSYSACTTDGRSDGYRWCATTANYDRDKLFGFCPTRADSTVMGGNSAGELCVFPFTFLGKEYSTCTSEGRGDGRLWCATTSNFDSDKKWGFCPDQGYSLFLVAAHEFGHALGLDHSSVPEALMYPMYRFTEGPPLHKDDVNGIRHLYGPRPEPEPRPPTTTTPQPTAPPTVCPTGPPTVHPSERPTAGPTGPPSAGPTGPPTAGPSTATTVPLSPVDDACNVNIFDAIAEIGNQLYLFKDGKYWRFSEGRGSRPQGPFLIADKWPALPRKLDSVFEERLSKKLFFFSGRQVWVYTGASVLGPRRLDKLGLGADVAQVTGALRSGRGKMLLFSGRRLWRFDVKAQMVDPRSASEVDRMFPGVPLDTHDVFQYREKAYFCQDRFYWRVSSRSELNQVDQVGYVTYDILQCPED", "test": "Activation of proMMP9 by human fetal lung fibroblast (HFL-1) cultures (Western blot)", "format": "cell-based", "conditions": "for Signal of 80 kD band (INT*mm^2): pAb-1246", "experimental": "Compound-α was assessed additionally for ability to block the maturation of proMMP9 to active MMP9 in cultures of human fetal lung fibroblasts (HFL-1, American Type Culture Collection #CCL-153). Unlike rat synoviocytes, HFL-1 cells were unable to process proMMP9 to the active form without addition of neutrophil elastase. […] Rather, the function of elastase in this assay may be to inactivate tissue inhibitors of matrix metalloproteinases (TIMPs) that repress endogenous pathways of MMP9 activation (Am J Respir Crit Care Med; 1999; 159:1138-46).\nHLF-1 were maintained in monolayer culture in DMEM with 10% FCS and were used between passage numbers 5-15. HLF-1 were embedded in collagen gels as described for rat SCW synoviocytes (vida supra). Half mL gels containing 0.4 million cells were dislodged into wells of 12 well Costar plates containing 1 mL/well of DMEM adjusted to contain 0.05% BSA and 100 ng/mL human TNFα (R&D Systems Cat #210-TA/CF). After overnight culture (37° C. and 5% CO2) wells were adjusted to contain an additional 0.5 mL of DMEM containing 0.05% BSA and with or without 13.2 μM Compound-α (final concentration was 3.3 μM Compound-α). Next, cultures were adjusted to contain 30 nM human elastase (Innovative Research). The plates were cultured an additional 72 hrs, at which time MMP9 secreted into the conditioned media was bound to gelatin-sepharose and evaluated by Western blot analysis as described for the rat synoviocyte cultures (vida supra). mAb-51/82 detected three forms of MMP9 in HFL-1 cultures.\nA second experiment was performed to determine if the 80 kD form was mature active MMP9 and to determine the potency of Compound-α as an inhibitor of MMP9 maturation in this assay. HFL-1 cells embedded in collagen gels were cultured as described above in the presence of TNFα overnight and the cultures were then adjusted to contain 30 nM elastase and graded concentrations of Compound-α for an additional 72 hrs at which time MMP9 secreted into the conditioned media was bound to gelatin-sepharose and evaluated by Western blot analysis for active MMP9 using pAb-1246 raised against the N-terminal neoepitope of active MMP9 (Table 5). In the absence of Compound-α, pAb-1246 readily detected MMP9 with an electrophoretic mobility of approximately 80 kD. […] Inhibition occurred over a dose range with an IC50 of approximately 0.3 μM Compound-α."}, "[3]": {"conditions": "3.3 μM, 30 nM elastase, final 72 hrs, mAb-L51/82"}},
  "data": [
    {"compound": "Cc1nc(C)c(-c2csc(Nc3cc(S(N)(=O)=O)ccc3OC(C)C)n2)s1", "note": "[Compound-α, 3-(2′,4′-Dimethyl-[4,5′]bithiazolyl-2-ylamino)-4-isopropoxy-benzenesulfonamide.HBr]", "values": [
      {"measurement": "Abundance of proMMP9 in ankles", "setting": "[1]", "value": "did not reduce the abundance of proMMP9"},
      {"measurement": "Abundance of proMMP9 in ankles", "setting": "[1]; listed as Compound a", "value": "did not reduce the abundance of proMMP-9"},
      {"measurement": "Active 80 kD form of MMP9 in ankles", "setting": "[1]; pAb-1246 and mAb-L51/82, FIG. 3", "value": "notable reduction in the active 80 kD form of MMP9"},
      {"measurement": "Signal of 80 kD band (INT*mm^2)", "setting": "[2]; 0.12 μM, 30 nM elastase, final 72 hrs", "value": 168211, "unit": "INT*mm^2"},
      {"measurement": "Signal of 80 kD band (INT*mm^2)", "setting": "[2]; 0.37 μM, 30 nM elastase, final 72 hrs", "value": 45996, "unit": "INT*mm^2"},
      {"measurement": "Signal of 80 kD band (INT*mm^2)", "setting": "[2]; 1.1 μM, 30 nM elastase, final 72 hrs", "value": 1747, "unit": "INT*mm^2"},
      {"measurement": "Percent of total signal, 80 kD", "setting": "[2]; [3]", "value": 7, "unit": "%"},
      {"measurement": "Percent of total signal, 86 kD", "setting": "[2]; [3]", "value": 47, "unit": "%"},
      {"measurement": "Percent of total signal, 100 kD", "setting": "[2]; [3]", "value": 46, "unit": "%"},
      {"measurement": "Signal (INT*mm^2), 80 kD", "setting": "[2]; [3]", "value": 6092, "unit": "INT*mm^2"},
      {"measurement": "Signal (INT*mm^2), 86 kD", "setting": "[2]; [3]", "value": 43147, "unit": "INT*mm^2"},
      {"measurement": "Signal (INT*mm^2), 100 kD", "setting": "[2]; [3]", "value": 42107, "unit": "INT*mm^2"},
      {"measurement": "Signal (INT*mm^2), Total", "setting": "[2]; [3]", "value": 91346, "unit": "INT*mm^2"},
      {"measurement": "Signal of 80 kD band (INT*mm^2)", "setting": "[2]; 3.3 μM, 30 nM elastase, final 72 hrs", "value": 152, "unit": "INT*mm^2"},
      {"measurement": "Processing of MMP9 forms by HFL-1 cells", "setting": "[2]; 3.3 μM, mAb-L51/82", "value": "the formation of the 80 kD form was suppressed"},
      {"measurement": "Signal of 80 kD band (INT*mm^2)", "setting": "[2]; 10 μM, 30 nM elastase, final 72 hrs", "value": 0, "unit": "INT*mm^2"}
    ]}
  ]
}
